Assay results: patent publication US20250144067A1, “PERSONALIZED STARVATION THERAPY FOR CANCER” (Faeth Therapeutics, Inc., priority 2021, published 2025)
Structures can show the parent of a compound that is named as a salt.

Key:
[1] = system: NCI-H292 lung cancer cells; assay: FDA drug screening, complete media vs cholesterol-free media without statin (TABLE 1); type: cell-based, human
[2] = system: NCI-H292 lung cancer cells; assay: FDA drug screening, complete media vs cholesterol-free media with simvastatin (TABLE 2); type: cell-based, human; details: for Cholesterol-free media + simvastatin (0.04 μM) / Complete Media: NCI-H292 cells
[3] = Complete minus Cholesterol-free, >0 enhanced anti-cancer activity, about 0 neutral, <0 antagonist
[4] = NCI-H292 cells, cholesterol-free media without statin, FDA drug library screen
[5] = NCI-H292 cells, complete media, FDA drug library screen
[6] = cholesterol-free media with simvastatin 0.04 μM, FDA drug library screen (TABLE 2)
[7] = complete media, FDA drug library screen (TABLE 2)
[8] = complete media minus cholesterol-free media + simvastatin (0.04 μM), >0 enhanced anti-cancer activity, about 0 neutral, <0 antagonist
[9] = Complete minus Cholesterol-free, greater than 0 enhanced anti-cancer activity, about 0 neutral, below 0 antagonists
[10] = NCI-H292 cells in cholesterol-free media without statin
[11] = NCI-H292 cells in complete media
[12] = FDA drug library screen, cholesterol-free media with simvastatin 0.04 μM
[13] = FDA drug library screen, complete media
[14] = complete media minus cholesterol-free media + simvastatin, >0 enhanced anti-cancer activity, about 0 neutral, <0 antagonist
[15] = cholesterol-free media with simvastatin 0.04 μM, cell growth value in FDA drug screen
[16] = complete media, cell growth value in FDA drug screen
[17] = Complete minus Cholesterol-free, […]
[18] = NCI-H292 cells, cholesterol-free media without statin
[19] = complete media vs cholesterol-free media + simvastatin (0.04 μM), […]
[20] = drug in cholesterol-free media with simvastatin 0.04 μM
[21] = complete media vs cholesterol-free media + simvastatin (0.04 μM), >0 enhanced anti-cancer activity, about 0 neutral, <0 antagonist
[22] = Complete minus Cholesterol-free, greater than 0 enhanced anti-cancer activity, about 0 neutral, below 0 antagonist
[23] = NCI-H292 cells, FDA drug library screen, cholesterol-free media without statin
[24] = NCI-H292 cells, FDA drug library screen, complete media
[25] = complete vs cholesterol-free media, >0 enhanced anti-cancer activity, about 0 neutral, <0 antagonist

CCN(CC)CCOC(=O)C(Cc1cccc2ccccc12)CC1CCCO1.O=C(O)C(=O)O (centres unmarked) [Naftidrofuryl (oxalate)]
Difference [1, 3]: −0.04
Cholesterol-free [1, 4]: 1.015
Complete [1, 5]: 0.9733
Cholesterol-free media + simvastatin (0.04 μM) [2, 6]: 1.139
Complete Media [2, 7]: 1.076
Difference [2, 8]: −0.06

CN(C/C=C/c1ccccc1)Cc1cccc2ccccc12 [Naftifine (hydrochloride)]
Difference [1, 9]: −0.88
Cholesterol-free [1, 10]: 1.921
Complete [1, 11]: 1.037
Cholesterol-free media + simvastatin (0.04 μM) [2, 12]: 0.9055
Complete Media [2, 13]: 1.136
Difference [2, 14]: 0.23

COc1ccccc1N1CCN(CC(O)COc2cccc3ccccc23)CC1 (centres unmarked) [Naftopidil]
Difference [1, 9]: −0.98
Cholesterol-free [1, 10]: 1.94
Complete [1, 11]: 0.9592
Cholesterol-free media + simvastatin (0.04 μM) [2, 15]: 0.6892
Complete Media [2, 16]: 0.763
Difference [2, 14]: 0.07

CN(C(=O)/C=C/c1ccoc1)[C@@H]1CC[C@@]2(O)[C@H]3Cc4ccc(O)c5c4[C@@]2(CCN3CC2CC2)[C@H]1O5 [Nalfurafine (hydrochloride)]
Difference [1, 17]: −0.29
Cholesterol-free [1, 18]: 1.222
Complete ([1]; NCI-H292 cells, complete media): 0.931
Cholesterol-free media + simvastatin (0.04 μM) [2, 12]: 1.083
Complete Media [2, 13]: 0.926
Difference [2, 19]: −0.16

CCn1cc(C(=O)O)c(=O)c2ccc(C)nc21 [Nalidixic acid]
Cholesterol-free [1, 18]: 1.332
Complete ([1]; NCI-H292 cells, complete media): 0.9692
Difference ([1]; complete vs cholesterol-free media, […]): −0.36
Cholesterol-free media + simvastatin (0.04 μM) [2, 20]: 1.203
Complete Media ([2]; drug in complete media): 0.9667
Difference [2, 19]: −0.24

c1ccc2c(CC3=NCCN3)cccc2c1 [Naphazoline (hydrochloride)]
Difference [1, 3]: −0.26
Cholesterol-free [1, 18]: 1.189
Complete ([1]; NCI-H292 cells, complete media): 0.9279
Cholesterol-free media + simvastatin (0.04 μM) [2, 6]: 0.7495
Complete Media [2, 7]: 0.6802
Difference [2, 8]: −0.07

COc1ccc2cc([C@H](C)C(=O)O)ccc2c1 [Naproxen (sodium)]
Cholesterol-free [1, 18]: 1.162
Complete ([1]; NCI-H292 cells, complete media): 0.8469
Difference ([1]; complete vs cholesterol-free media, greater than 0 enhanced anti-cancer activity, about 0 neutral, below 0 antagonists): −0.32
Cholesterol-free media + simvastatin (0.04 μM) [2, 12]: 1.198
Complete Media [2, 13]: 1.058
Difference [2, 21]: −0.14

COc1ccc2cc([C@H](C)C(=O)O)ccc2c1 [Naproxen]
Difference [1, 3]: −0.23
Cholesterol-free [1, 18]: 1.155
Complete ([1]; NCI-H292 cells, complete media): 0.9257
Cholesterol-free media + simvastatin (0.04 μM) [2, 15]: 0.9241
Complete Media [2, 16]: 1.007
Difference [2, 14]: 0.08

CNS(=O)(=O)CCc1ccc2[nH]cc(C3CCN(C)CC3)c2c1 [Naratriptan (hydrochloride)]
Difference [1, 22]: −0.17
Cholesterol-free [1, 23]: 1.077
Complete [1, 24]: 0.9077
Cholesterol-free media + simvastatin (0.04 μM) [2, 20]: 1.179
Complete Media ([2]; drug in complete media): 0.9588
Difference [2, 21]: −0.22

C[C@@H]1C/C=C/C=C/C=C/C=C/[C@H](O[C@@H]2O[C@H](C)[C@@H](O)[C@H](N)[C@@H]2O)C[C@@H]2O[C@](O)(C[C@@H](O)C[C@H]3O[C@@H]3/C=C/C(=O)O1)C[C@H](O)[C@H]2C(=O)O [Natamycin]
Difference [1, 22]: −0.07
Cholesterol-free [1, 23]: 1.061
Complete [1, 24]: 0.9893
Cholesterol-free media + simvastatin (0.04 μM) [2, 12]: 1.218
Complete Media [2, 13]: 1.127
Difference [2, 21]: −0.09

CC(C)[C@H]1CC[C@H](C(=O)N[C@H](Cc2ccccc2)C(=O)O)CC1 [Nateglinide]
Cholesterol-free [1, 4]: 1.149
Complete [1, 5]: 1.887
Difference [1, 25]: 0.74
Cholesterol-free media + simvastatin (0.04 μM) [2, 12]: 1.052
Complete Media [2, 13]: 1.823
Difference [2, 14]: 0.77

OC(CNCC(O)C1CCc2cc(F)ccc2O1)C1CCc2cc(F)ccc2O1 (centres unmarked) [Nebivolol (hydrochloride)]
Cholesterol-free [1, 4]: 0.567
Difference [1, 25]: 0.61
Cholesterol-free media + simvastatin (0.04 μM) [2, 6]: 0.9013
Complete Media [2, 7]: 0.8774
Difference [2, 8]: −0.02

[NH2][Pt]1([NH2])[O]CC(=O)[O]1 [Nedaplatin]
Difference [1, 17]: −0.25
Cholesterol-free [1, 18]: 1.253
Complete ([1]; NCI-H292 cells, complete media): 1.005
Cholesterol-free media + simvastatin (0.04 μM) [2, 20]: 1.191
Complete Media ([2]; drug in complete media): 0.986
Difference [2, 19]: −0.20

CCCc1c2oc(C(=O)O)cc(=O)c2cc2c(=O)cc(C(=O)O)n(CC)c12 [Nedocromil]
Cholesterol-free [1, 4]: 1.678
Complete [1, 5]: 1.893
Difference [1, 25]: 0.22
Cholesterol-free media + simvastatin (0.04 μM) ([2]; FDA library drug in cholesterol-free media with simvastatin 0.04 μM): 1.951
Complete Media ([2]; FDA library drug in complete media): 1.336
Difference [2, 21]: −0.61
